Where two headings read alike, the source gives them in different places.
Tests used:
BC-1 = assay: WST-1 cytotoxicity assay, BC-1 (KSHV+ PEL); type: cell-based; details: Homo sapiens, BC1, 72 h
Excerpt: (§1) Fig 2 Identification of newly synthesized dual inhibitors with anti-PEL activities. (A) The binding mode of (+)-JQ1 with BRD4^BD1 (PDB: 3MXF). BRD4^BD1 is shown as hot pink cartoon with gray surface. Asn140 in BRD4^BD1 is shown as sticks and colored in following pattern: atom C hot pink, atom N dark blue, and atom O yellow. (+)-JQ1 is shown as sticks and colored in following patten: atom C hot pink, atom N dark blue, atom O yellow, atom S golden, and atom Cl green. The solvent exposed region (SEG) of (+)-JQ1 are indicated with white arrow. (B) The binding modes of SAHA and entinostat with HDAC2 (PDB: 3MAX). HDAC2 is shown as blue cartoon with gray surface. Asp181 and His183 in HDAC2 are shown as sticks and colored in following pattern: atom C blue, atom N dark blue, and atom O yellow. The catalytic zinc ion in the active site of HDAC2 is shown as black sphere. SAHA is shown as sticks and colored in following pattern: atom C green, atom N dark blue, and atom O yellow. Entinostat is shown as sticks and colored in following pattern: atom C hot pink, atom N dark blue, and atom O yellow. The SEG of SAHA or entinostat is indicated with white arrow. Hydrogen bonds (H-bonds) are presented by red dash lines. (C) The HDACs/BRD4 dual inhibitors 002-011 were designed by fusing the key pharmacophores of (+)-JQ1 (pink) and HDAC inhibitors (blue), SAHA or entinostat, via various chemical linkers (green). (D) Anti-PEL activities of the new compounds. Five KSHV positive and two KSHV negative lymphoma cell lines were treated with indicated concentrations of these compounds for 72 h. Then the cytotoxicity was determined using the WST-1 assay. (+)-JQ1, SAHA and entinostat were used for the comparisons as single inhibitors. The CC50 for each compound was calculated using GraphPad Prism 5.0 software. Error bars represent S.D. for 3 independent experiments.
(§2) Fig 4 Identification of anti-PEL activities for compound 009 stereoisomers. (A) The chemical structures of anti-HDACs/BRD4 bifunctional molecules 009P1 and 009P2, as well as anti-HDACs or anti-BRD4 mono-functional molecules 009N1, 009N2, 009N3, and 009N4. (B-C) Four KSHV+ PEL cell lines were treated with indicated concentrations of 009P1, 009P2 or 009N1-N4 for 72 h, then the cytotoxicity was determined using the WST-1 assay. (D-I) BCBL-1 cells were treated with these compounds at the respective 2× CC50 for 24 h, then cell cycle (D-F) and apoptosis (G-I) were measured by flow cytometry analysis. Error bars represent S.D. for 3 independent experiments, ** = p<0.01 (vs vehicle control).
(§3) The cell viability following treatment with compounds was assessed by the WST-1 assay (Roche, Indianapolis, Indiana, USA) according to the manufacturer’s protocol as described previously. The absorbance signal was measured using a microplate reader (Biotek Synergy 2). The 50% cytotoxic concentration (CC50) for each compound was calculated from these dose-response curves using the software GraphPad Prism v5.0. Data were normalized as the fold change compared to the DMSO control.

JSC-1 = assay: WST-1 cytotoxicity assay, JSC-1 (KSHV+ PEL); type: cell-based; details: 72 h
Excerpt: as §1, §2, §3

BJAB.219 = assay: WST-1 cytotoxicity assay, BJAB.219 (KSHV-infected lymphoma); type: cell-based; details: 50% cytotoxic concentration, 72 h, WST-1; read-out: KSHV-infected lymphomas CC50, BJAB.219
Excerpt: as §1
BCBL-1 and iSLK.219 cells were kindly provided by Dr. Pinghui Feng (University of Southern California). BL-41, BJAB, BCP-1, BC-1, BC-3, JSC-1, HUVEC cells were purchased from American Type Culture Collection (ATCC), and cultured as recommended by the manufacturer. For making BJAB.219 cells, BJAB cells were infected with rKSHV.219 stock by spinoculation as previously reported by centrifugation at 1500×g for 60 min [31]. Then, puromycin (10 μg/ml) was added into the medium at 72 h post-infection and the medium containing puromycin was replaced twice a week. After 6-week high concentration of puromycin selection, BJAB.219 cells were then cultured in the medium with 0.5 μg/ml puromycin.
The cell viability following treatment with compounds was assessed by the WST-1 assay (Roche, Indianapolis, Indiana, USA) according to the manufacturer’s protocol as described previously. The absorbance signal was measured using a microplate reader (Biotek Synergy 2). […]

BCBL-1 = assay: WST-1 cytotoxicity assay, BCBL-1 (KSHV+ PEL); type: cell-based; details: BCBL1, 72 h
Excerpt: as §1, §2, §3

HUVEC = assay: WST-1 cytotoxicity on primary cells HUVEC; type: cell-based, human
Procedure: as §3
Supplementary file ppat.1011089.s006.tif: S5 Fig Cytotoxicity of tested compounds on HUVEC. The primary cells HUVEC were treated with indicated concentrations of compounds for 72 h, then cell viability was assessed using the WST-1 assay. The CC50 for each compound was calculated from the dose-response curves using Graphpad Prism 5.0 software. Data was normalized as the fold change compared to the DMSO control. (TIF) Click here for additional data file.

[1] = WST-1 cytotoxicity assay, BJAB (KSHV negative lymphoma); type: cell-based; details: human
Excerpt: as §1, §3

[2] = WST-1 cytotoxicity assay, BL-41 (KSHV negative lymphoma); type: cell-based; details: human
Excerpt: as §1, §3

BCP-1 = assay: WST-1 cytotoxicity assay, BCP-1 (KSHV+ PEL); type: cell-based; details: BCP-1, 72 h
Excerpt: as §1, §2, §3

BRD4 = BRD4 signaling by Western blot (c-Myc expression); type: cell-based; details: BCBL-1 cells, 48 h, Western blot
HDACs = HDACs signaling by Western blot (H3K9Ac, H4K9Ac, Acetyl-tubulin); type: cell-based; details: BCBL-1 cells, 48 h, Western blot

In the case of Nc1ccccc1NC(=O)c1ccc(CNC(=O)OCc2cccnc2)cc1 [Entinostat, reference compound], the CC50 (BC-1; read-out: KSHV-infected lymphomas CC50, BC-1) is reported as 300 nM, the CC50 (JSC-1; read-out: KSHV-infected lymphomas CC50, JSC-1) is reported as 150 nM and the CC50 (BJAB.219) is reported as 180 nM. For the same compound, the CC50 (BCBL-1; read-out: KSHV-infected lymphomas CC50, BCBL-1) was 170 nM, the “Cytotoxicity in primary cells HUVEC” value (HUVEC) was “moderate cytotoxicity” and the CC50 at 72 h [1] was 420 nM. It also gave a CC50 at 72 h [2] of 570 nM and a CC50 (BCP-1; read-out: KSHV-infected lymphomas CC50, BCP-1) of 200 nM.
In the case of Cc1sc2c(c1C)C(c1ccc(Cl)cc1)=N[C@H](CC(=O)O[C@H](C)c1ccc(C(=O)Nc3ccccc3N)cc1)c1nnc(C)n1-2 [009N1, (R)-1-(4-((2-aminophenyl)carbamoyl)phenyl)ethyl 2-((R)-4-(4-chlorophenyl)-2,3,9-trimethyl-6H-thieno[3,2-f][1,2,4]triazolo[4,3-a][1,4]diazepin-6-yl)acetate], the CC50 (BC-1; read-out: CC50, BC-1) is reported as > 10000 nM, the CC50 (JSC-1; read-out: CC50, JSC-1) is reported as > 10000 nM and the c-Myc expression (BRD4) is reported as “subtle effect”. The CC50 (BCBL-1; read-out: CC50, BCBL-1) was 7560 nM, the “H3K9Ac, H4K9Ac and Acetyl-tubulin protein levels” value (HDACs) was “upregulated” and the CC50 (BCP-1; read-out: CC50, BCP-1) was > 10000 nM.
With Cc1sc2c(c1C)C(c1ccc(Cl)cc1)=N[C@H](CC(=O)O[C@@H](C)c1ccc(C(=O)Nc3ccccc3N)cc1)c1nnc(C)n1-2 [009N2, (S)-1-(4-((2-aminophenyl)carbamoyl)phenyl)ethyl 2-((R)-4-(4-chlorophenyl)-2,3,9-trimethyl-6H-thieno[3,2-f][1,2,4]triazolo[4,3-a][1,4]diazepin-6-yl)acetate] the CC50 (BC-1; read-out: CC50, BC-1) was 3120 nM, the CC50 (JSC-1; read-out: CC50, JSC-1) was > 10000 nM and the c-Myc expression (BRD4) was “subtle effect”. The CC50 (BCBL-1; read-out: CC50, BCBL-1) was 1070 nM, the “H3K9Ac, H4K9Ac and Acetyl-tubulin protein levels” value (HDACs) was “upregulated” and the CC50 (BCP-1; read-out: CC50, BCP-1) was 7680 nM.
